# Data reported in article PMC10937676, “Targeting the NTSR2/TrkB oncogenic pathway in chronic lymphocytic leukemia” (Scientific Reports, 2024).
# Key:
# [1] = system: BCL-2 mRNA; test: RTqPCR, mRNA level of BCL-2 in CLL-B cells; type: cell-based, human; conditions: CLL-B cells from 12 patients, overnight, 10 µM, 18S housekeeping gene
# From the text: (§1) Concerning anti-apoptotic protein expression, a decrease in anti-apoptotic proteins BCL-2; BCL-XL and MCL-1 was observed after TAT-Pep treatment of CLL-B cells, possibly as a consequence of the SRC kinase inactivation (Fig. 6A–C). To unveil whether the regulation mechanism behind the observed modifications was transcriptional or post-transcriptional, we evaluated the mRNA levels of all three anti-apoptotic proteins following peptide treatment. […] To further underline that the induction of cell death following TAT-Pep treatment involved apoptosis regulation pathways, we used B cells from six CLL patients and stained them with Annexin V in both TAT-Pep treated and untreated conditions. […]
# (§2) Figure 6 The peptide lowers anti-apoptotic proteins levels. […] CLL-B cells from 12 patients were incubated overnight, with or without 10 µM of TAT-Pep, subsequently RNA was extracted from cell lysates and mRNA levels of BCL-2 (D); BCL-XL (E) and MCL-1 (F) were evaluated using RTqPCR; 18S was used as a housekeeping gene. (G) Increased concentrations (0 to 30 µM) of TAT-Pep were incubated with 20,000 CLL-B, and the number of Annexin V-positive cells was measured using the Incucyte live-cell imaging device. Fluorescence was monitored for 48 h. […] The ‘Green Object Count/Phase Object Count’ ratio was determined using the Incucyte analysis software to obtain the percentage of apoptotic cells. […]
# [2] = system: BCL-XL; test: Immunoblot, relative level of anti-apoptotic protein BCL-XL in CLL-B cells; type: cell-based, human; conditions: CLL-B cells from 10 patients, overnight, 10 µM
# From the text: as §1, §2
# [3] = target: NTSR2/TRKB interaction (Homo sapiens, UniProt Q16620); test: NTSR2-AviTag pull-down, inhibition of the NTSR2/TRKB interaction in transfected HEK293T cells; type: cell-based; parameters: host or cells: HEK293T
# Sequence of NTSR2/TRKB interaction (Q16620 32-822): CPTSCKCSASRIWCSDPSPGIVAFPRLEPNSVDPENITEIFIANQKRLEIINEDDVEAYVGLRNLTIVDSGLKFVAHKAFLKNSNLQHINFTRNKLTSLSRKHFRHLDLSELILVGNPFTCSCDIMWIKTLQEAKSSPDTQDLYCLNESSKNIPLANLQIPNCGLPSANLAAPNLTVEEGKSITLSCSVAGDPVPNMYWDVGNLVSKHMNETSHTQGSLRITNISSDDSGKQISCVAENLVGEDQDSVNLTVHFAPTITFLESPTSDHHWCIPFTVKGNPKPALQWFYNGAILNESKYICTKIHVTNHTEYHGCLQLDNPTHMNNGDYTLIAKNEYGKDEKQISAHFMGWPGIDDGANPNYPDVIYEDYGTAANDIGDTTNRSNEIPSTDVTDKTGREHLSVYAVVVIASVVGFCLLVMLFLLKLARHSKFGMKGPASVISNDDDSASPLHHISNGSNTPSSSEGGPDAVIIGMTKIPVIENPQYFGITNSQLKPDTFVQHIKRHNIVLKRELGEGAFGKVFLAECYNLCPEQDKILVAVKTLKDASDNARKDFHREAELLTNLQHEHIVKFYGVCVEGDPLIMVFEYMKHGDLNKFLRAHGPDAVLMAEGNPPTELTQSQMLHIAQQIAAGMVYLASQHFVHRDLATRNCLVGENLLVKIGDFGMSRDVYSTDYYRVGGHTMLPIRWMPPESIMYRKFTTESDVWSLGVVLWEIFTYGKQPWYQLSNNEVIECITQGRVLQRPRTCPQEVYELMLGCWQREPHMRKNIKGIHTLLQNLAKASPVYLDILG
# From the text: Nuclei were stained with DAPI (blue). […] (C) Representative immunoblot of 3 independent experiments. […] Nuclei were stained with DAPI (blue). Magnification × 40.
# The amount of co-immunoprecipitated TRKB protein was detected by immunoblot (Fig. 4C,D). […] This is associated to the low penetration of the peptide in the cells.
# Vectors used were constructed by Vector Builder. The vector builder IDs are VB201022-1029qpx (BirA); VB201022-1027yza (TRKB-NTSR2) and VB201022-1012yjb (TRKB-NTSR2-AviTag™). 500 000 HEK293T cells were seeded and transfected the following day with 3 µg of plasmid using jetPEI (Polyplus Transfection). They were then treated with 40 µM biotin and with or without […] of BDNF (ABclonal).
# Proteins were extracted using RIPA buffer (Sigma-Aldrich) and sonication (VibraCell™). They were then incubated with 30 μL of streptavidin-functionalized magnetic beads (Invitrogen) for 2 h at 4 °C under rotation. For western blot analysis, the magnetic beads were washed 4 times with cold PBS and the fixed proteins were eluted in 4 × Laemmli buffer supplemented with 10% β-mercaptoethanol and denatured at 95 °C for 5 min.
# Whole cell lysate proteins were extracted using RIPA buffer (Sigma-Aldrich) and sonication (VibraCell™). […] Bands were quantitatively assessed by densitometry using Fiji software. […]
# [4] = system: MCL-1; test: Immunoblot, relative level of anti-apoptotic protein MCL-1 in CLL-B cells; type: cell-based, human; conditions: CLL-B cells from 10 patients, overnight, 10 µM
# From the text: as §1, §2
# [5] = system: BCL-2; test: Immunoblot, relative level of anti-apoptotic protein BCL-2 in CLL-B cells; type: cell-based, human; conditions: CLL-B cells from 10 patients, overnight, 10 µM
# From the text: as §1, §2
sequence,measurement,setting,value
GRKKRRQRRRPPQNAVSSSFRKLFLEAVSSLCGEHHPMKRLPPKPQSPTLMDTASGFGDPPETRT [TAT-Pep],mRNA level of BCL-2 (in words),[1],significantly lowered expression
same,level of anti-apoptotic protein BCL-XL (in words),[2],decrease
same,"amount of co-immunoprecipitated TRKB protein (TRKB/NTSR2 ratio, in words)","[3]; transfected HEK293T cells incubated overnight with 10 µM peptide, streptavidin pull-down, immunoblot densitometry, 3 independent experiments",significant decrease
same,effect of BDNF addition on the inhibited NTSR2/TRKB interaction (in words),"[3]; transfected HEK293T cells, 10 µM peptide overnight, BDNF in the culture medium",did not restore the interaction
same,level of anti-apoptotic protein MCL-1 (in words),[4],decrease
same,level of anti-apoptotic protein BCL-2 (in words),[5],decrease
